In article PMC9603946, “On the Sensitivity of the Virion Envelope to Lipid Peroxidation” (Microbiology Spectrum, 2022):
Like-named read-outs stand apart in the source and are kept apart here. Marks after values point to notes of the source that are not given here.

Tests used:
Vero cells [1] = test: Vero cell lipid peroxidation probed with liperfluo; assay type: cell-based, African green monkey; conditions: Chlorocebus sabaeus, Vero, Liperfluo probe, read-out: CP50 (the source's name)
Description: The effects of peroxidators have been commonly evaluated against purified lipids and liposomes as a proxy, but they have not been evaluated against virions ([50], [53][–][55]). We instead directly evaluated the extent of virion lipid peroxidation.
To evaluate cell lipid peroxidation using liperfluo, 7.5 × 10^3 Vero cells were seeded into each well of 96-well plates and incubated for 18 h at 37°C in 5% CO2. […] Two hours later, the cells were washed twice, and the fluorescence was evaluated in a TECAN Infinite M200 Pro at 515 nm excitation and 545 nm emission.
To evaluate the effects of a lipid soluble antioxidant, cells or virions were preloaded with vitamin E-BSA for 3 h at 37°C. Vitamin E-BSA containing medium was removed, and the cells were washed twice with DMEM. Liperfluo (20 or 10 μM for cells or virions, respectively) or C11-Bodipy (1 μM for cells or 0.1 mol% for virions) were preloaded into the cells or virions for 30 min at 37°C.
To evaluate the effects of water soluble antioxidants, liperfluo (20 μM for cells or 10 μM for virions) or C11-Bodipy (1 μM for cells or 0.1 mol% for virions) were preloaded into the cells or virions for 30 min at 37°C. […] Fluorescence was evaluated in a TECAN Infinite M200 Pro at 515 nm excitation and 545 nm emission for liperfluo or at 550 nm excitation and 580 to 630 nm emission for C11-Bodipy.

HFF cells = test: HFF cell viability after 2 h exposure to lipoperoxidators (CellTiter-Glo); conditions: HFF
Description: (§1) The cells were washed twice with warm DMEM before a 100 μL lipoperoxidator solution was transferred with a multichannel pipette from the plate containing the drug dilutions in technical triplicates. The cells were incubated with peroxidators for 2 h at 37°C. Then, the medium was removed, and the cells were washed twice with DMEM at 37°C. The plates were cooled down to RT, and the medium was removed. Then, 50 μL phenol red free DMEM and 50 μL CellTiter-glo Luminiscent Cell Viability Assay (Promega, G7571/2/3) were added and mixed in an orbital shaker for 2 min. Afterwards, 80 μL of the mix was transferred onto white 96-well plates and incubated for 10 min at RT for signal stabilization. The luminescence was read in the Glomax Multidetection System (Promega) with an integration time of 0.5 s.
(§2) The means of the technical triplicates were normalized to the means of the vehicle controls, analyzed via nonlinear regression dose responses, and graphed using GraphPad Prism 9.0. Three or four independent biological replicates were performed for each treatment (n = 3 or 4).
(§3) To evaluate the effects of lipid soluble antioxidants, 10 μM vitamin E was loaded onto carrier 1% BSA in the dark for 4.5 h at RT. The cells were washed twice with DMEM at 37°C and preloaded with 100 μL of 10 μM vitamin E in BSA carrier for 3 h at 37°C. The cells were washed twice again before the addition of any lipoperoxidators. Peroxidators were then added to the cells at working concentrations and incubated for 2 h at 37°C. The peroxidation solution was then removed, and the cells were washed twice with DMEM before analyzing viability. To evaluate the effects of a water soluble antioxidant, the cells were treated with 10 μM vitamin C (final concentration) simultaneously with the lipoperoxidators.

[2] = as above; conditions: human, CC50, HFF
Description: as §1, §2, §3

[3] = Vero cell viability after 2 h exposure to lipoperoxidators (CellTiter-Glo); conditions: African green monkey, CC50, Vero
Description: as §1, §2, §3

Vero cells [4] = test: as above; conditions: Vero
Description: as §1, §2, §3

[5] = preloaded with vitamin E (10 μM, BSA carrier)

Q: With CC(C)CC(C)(C#N)N=NC(C)(C#N)CC(C)C (stereo not drawn) [AMVN, 2,2′-azobis(2,4-dimethylvaleronitrile)] as the compound, how does the EC50 (Vero cells [1]; no antioxidant) read?
A: 12.6 mM

Q: And the EC50 (Vero cells [1]; vitamin C)?
A: 11.1 mM

Q: What about the EC50 (Vero cells [1]; vitamin E) of the same compound?
A: 16.1 mM

Q: What about the “concentration from which HFF viability was affected” value (HFF cells) of the same compound?
A: 2000 µM

Q: What about the “PI, CC50 (antioxidant)/CC50” value (HFF cells; vitamin C) of the same compound?
A: 0.9

Q: What about the “PI, CC50 (antioxidant)/CC50” value (HFF cells; vitamin E) of the same compound?
A: 1.0

Q: What about the CC50 at 2 h ([2]; no antioxidant, 2 h at 37°C) of the same compound?
A: 4.8 mM

Q: What about the CC50 at 2 h [2, 5] of the same compound?
A: 4.9 mM

Q: What about the CC50 at 2 h ([2]; with vitamin C (10 μM)) of the same compound?
A: 4.4 mM

Q: And the CC50 at 2 h ([3]; no antioxidant, 2 h at 37°C)?
A: 4 mM

Q: And the CC50 at 2 h [3, 5]?
A: 4.6 mM

Q: What about the CC50 at 2 h ([3]; with vitamin C (10 μM)) of the same compound?
A: 3.3 mM

Q: And the “concentration of maximal inhibition of cell viability” value (Vero cells [4])?
A: 10000 µM

Q: What about the “PI, CC50 (antioxidant)/CC50” value (Vero cells [4]; vitamin C) of the same compound?
A: 0.8

Q: What about the “PI, CC50 (antioxidant)/CC50” value (Vero cells [4]; vitamin E) of the same compound?
A: 1.2^d
